Measured values as given in patent US20230218707A1, “NOVEL PEPTIDE INHIBITORS OF BETA-LACTAMASE AGAINST ANTIBIOTIC RESISTANCE” (priority 2020, published 2023).
Residues, ends and D or L forms follow the SMILES beside them.

Assays:
ATCC35218 cells = test: Confocal microscopy of uptake of fluorescent labeled peptide; format: cell-based, E. coli; details: 5(6)-FAM label at N-terminus
Experimental: To confirm that the CPP enhanced the E. coli uptake of the peptide, the BP100-T61-25 peptide was labeled with 5(6)-FAM [5-(and-6)-Carboxyfluorescein at the N-terminus and incubated with ATCC35218 cells. […] It is noted that significant enhancement of amoxicillin potency against resistant bacteria can be achieved by linking CPPs to peptide inhibitor.

[1] = tested on: Escherichia coli ATCC 35218; format: cell-based; details: for enhancement of amoxicillin killing of ATCC35218: 32 μg/ml amoxicillin, FIG. 1 / FIG. 2A
Experimental: The activity of peptide inhibitors was assessed in Escherichia coli ATCC 35218 strain, which is a TEM-1 producing control E. coli strain commonly used in testing β-lactamase inhibitor activity, and which is resistant to amoxicillin by expressing TEM-1 β-lactamase. Peptide inhibitors that can inhibit TEM-1 function will lower minimum inhibitory concentration (MIC) of the amoxicillin against the resistant bacteria, which will be used to measure the potency of peptide inhibitors in bacteria. Bacterial susceptibility to amoxicillin and β-lactamase inhibitors were determined by broth microtiter dilution (BMD) according to the Clinical and Laboratory Standards Institute (CLSI) methodology. The tests were done using checkboard method with different amoxicillin concentrations (0-128 μg/ml). For the control group, clavulanic acid concentration was about 4 μg/ml.

MRSA strain (JE2) = test: Growth of MRSA strain JE2 with peptide and ceftizoxime; format: cell-based, Staphylococcus aureus; details: JE2, 8 μg/ml ceftizoxime (FIG. 4)
Experimental: Some of the MRSA strains also developed resistance against cephalosporin, which are improved β-lactams developed to overcome some of the early penicillin resistance. BP100-T61-25's synergy with Ceftizoxime, which is a third generation cephalosporin on a MRSA strain (JE2) that is resistant to cephalosporin, was tested.

NRS384 = test: Serial passage resistance selection of NRS384; format: cell-based, Staphylococcus aureus
MRSA strain NRS384 = test: Growth of MRSA strain NRS384 with peptide and amoxicillin; format: cell-based, Staphylococcus aureus
Experimental: In order to assess the potency of the peptides against MRSA, the peptides were tested on MRSA strain NRS384, which is widely used for studying MRSA infections.

PBP2a = biological target: T1, PBP2a (Staphylococcus aureus, UniProt P07944); test: In vitro binding assay, Bocillin FL binding to PBP2a (SDS-PAGE fluorescence); details: preliminary data, FIG. 3A
T1 construct: purchased RayBiotech, GA
Source text: More peptides were designed to target both PBP2a and β-lactamase which are predicted to enhance amoxicillin killing of MRSA. […] The top 6 best-scored peptides were synthesized. […] In the absence of peptide competitors, Bocillin FL bound to PBP2a and then gave rise to fluorescence signal when the protein was resolved on an SDS-PAGE gel.

TEM-1 = TEM-1 (Escherichia coli, UniProt P62593); details: literature peptide, Huang et al. 2003; cited from earlier work
Chain of TEM-1 (P62593 24-286 limits assumed): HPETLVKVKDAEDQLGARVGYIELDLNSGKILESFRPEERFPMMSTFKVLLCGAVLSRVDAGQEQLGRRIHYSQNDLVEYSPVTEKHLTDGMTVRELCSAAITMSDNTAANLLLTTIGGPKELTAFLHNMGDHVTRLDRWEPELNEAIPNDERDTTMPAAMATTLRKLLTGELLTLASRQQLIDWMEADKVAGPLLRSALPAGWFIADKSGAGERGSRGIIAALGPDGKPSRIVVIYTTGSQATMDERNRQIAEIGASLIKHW

T1 sequence (P07944 whole entry): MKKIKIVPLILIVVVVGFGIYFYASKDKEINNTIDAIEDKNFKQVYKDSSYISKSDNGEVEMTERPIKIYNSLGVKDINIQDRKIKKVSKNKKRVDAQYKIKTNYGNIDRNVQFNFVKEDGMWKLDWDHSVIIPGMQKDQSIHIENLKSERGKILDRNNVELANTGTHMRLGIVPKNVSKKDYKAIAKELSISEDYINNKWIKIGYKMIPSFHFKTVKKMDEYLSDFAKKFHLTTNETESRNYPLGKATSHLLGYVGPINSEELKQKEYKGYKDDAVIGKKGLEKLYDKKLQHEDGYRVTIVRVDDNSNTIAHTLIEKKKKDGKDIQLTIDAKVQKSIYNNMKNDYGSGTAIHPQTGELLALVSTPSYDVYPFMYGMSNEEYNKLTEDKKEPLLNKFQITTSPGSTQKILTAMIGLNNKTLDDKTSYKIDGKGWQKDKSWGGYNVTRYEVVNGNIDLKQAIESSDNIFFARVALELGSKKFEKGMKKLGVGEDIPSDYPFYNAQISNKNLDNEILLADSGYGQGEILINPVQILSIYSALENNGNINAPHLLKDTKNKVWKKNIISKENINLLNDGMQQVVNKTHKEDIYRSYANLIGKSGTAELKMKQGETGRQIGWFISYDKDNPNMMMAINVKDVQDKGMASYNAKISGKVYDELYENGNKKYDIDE

CC[C@H](C)[C@H](NC(=O)[C@H](CCCCN)NC(=O)[C@H](CCCCN)NC(=O)[C@H](Cc1ccccc1)NC(=O)[C@H](CC(C)C)NC(=O)[C@H](CCCCN)NC(=O)[C@@H](N)CCCCN)C(=O)N[C@@H](CC(C)C)C(=O)N[C@@H](CCCCN)C(=O)N[C@@H](Cc1ccc(O)cc1)C(=O)N[C@@H](CC(C)C)C(=O)N[C@@H](CCCCN)C(=O)N[C@H](C(=O)N[C@@H](Cc1ccc(O)cc1)C(=O)N[C@@H](CC(C)C)C(=O)N[C@@H](C)C(=O)N[C@@H](CCC(N)=O)C(=O)N[C@@H](C)C(=O)N[C@@H](C)C(=O)N[C@@H](C)C(=O)N[C@H](C(=O)NCC(=O)O)[C@@H](C)O)[C@@H](C)O [BP100-T61-25] (H-KKLFKKILKYLKTYLAQAAATG-OH; N-terminus and C-terminus assumed)
peptide internalization into E. coli cells (ATCC35218 cells): peptide internalization into E. coli cells was observed
enhancement of amoxicillin killing of ATCC35218 [1]: Marked enhancement of amoxicillin (32 μg/ml) killing of bacteria
peptide dose close to the MIC ([1]; ATCC 35218): ~8 µg/mL
peptide concentration with strong inhibition of bacterial growth ([1]; ATCC35218, with 32 μg/ml amoxicillin): 8 to 16 µg/mL
peptide concentration significantly inhibiting bacterial growth ([1]; ATCC35218, without amoxicillin): 16 µg/mL
peptide concentration significantly enhancing ceftizoxime's killing of JE2 (MRSA strain (JE2)): 8 µg/mL
peptide concentration sufficient to inhibit bacterial growth after serial passage (NRS384; NRS384 passages 12-15, with 32 μg/ml amoxicillin): 16 µg/mL
peptide concentration enhancing amoxicillin killing of MRSA (MRSA strain NRS384; NRS384, amoxicillin 32 μg/ml, FIG. 3C): 16 µg/mL

CC(C)C[C@H](NC(=O)[C@H](Cc1ccc(O)cc1)NC(=O)[C@@H](NC(=O)[C@@H](N)CCCCN)[C@@H](C)O)C(=O)N[C@@H](C)C(=O)N[C@@H](CCC(N)=O)C(=O)N[C@@H](C)C(=O)N[C@@H](C)C(=O)N[C@@H](C)C(=O)N[C@H](C(=O)NCC(=O)O)[C@@H](C)O [Peptide T61-25]
inhibition of Bocillin FL binding to PBP2a (PBP2a): inhibitory effect

CC(C)C[C@H](NC(=O)[C@H](C)NC(=O)[C@H](CCCNC(=N)N)NC(=O)[C@@H](NC(=O)[C@@H](NC(=O)[C@H](Cc1ccccc1)NC(=O)[C@@H](NC(=O)[C@@H](N)CCCCN)[C@@H](C)O)C(C)C)C(C)C)C(=O)N[C@@H](C)C(=O)N[C@@H](CO)C(=O)O [Peptide T63-07]
inhibition of Bocillin FL binding to PBP2a (PBP2a): inhibitory effect

C[C@H](NC(=O)[C@H](Cc1ccccc1)NC(=O)[C@H](CC(=O)O)NC(=O)CNC(=O)[C@H](CO)NC(=O)CNC(=O)CN)C(=O)N[C@@H](CCCNC(=N)N)C(=O)N[C@@H](CO)C(=O)N[C@@H](CO)C(=O)N[C@@H](Cc1ccc(O)cc1)C(=O)O [Peptide T66-12]
inhibition of Bocillin FL binding to PBP2a (PBP2a): inhibitory effect

CC1(C)S[C@@H]2[C@H](NC(=O)[C@H](N)c3ccc(O)cc3)C(=O)N2[C@H]1C(=O)O [amoxicillin, reference compound]
MIC (MRSA strain NRS384; Staphylococcus aureus): > 256 µg/mL

O=C(O)c1cn(C2CC2)c2cc(N3CCNCC3)c(F)cc2c1=O [ciprofloxacin, reference compound]
MIC (NRS384; Staphylococcus aureus, NRS384, read-out: bacterial MIC to ciprofloxacin after serial passage): > 256 µg/mL

CFFKDELKTYLAQAAATG [Peptide T63-2, cell wall-permeating peptide attached to peptide T61-25]
enhancement of amoxicillin killing of ATCC35218 [1]: moderate effect at enhancing amoxicillin potency

KFFKFFKFFKKTYLAQAAATG [Peptide T63-1, cell wall-permeating peptide attached to peptide T61-25]
enhancement of amoxicillin killing of ATCC35218 [1]: Significant enhancement of amoxicillin killing of bacteria
enhancement of amoxicillin potency compared with clavulanate ([1]; ATCC35218, FIG. 1): enhanced amoxicillin potency significantly more than clavulanate

KTFVVRALASCKFFKFFKFF [Peptide T63-07-CPP, T63-07 conjugated with CPP]
peptide concentration significantly enhancing amoxicillin inhibition of MRSA growth (MRSA strain NRS384; NRS384, amoxicillin 32 and 64 μg/ml, FIG. 3B): 32 µg/mL

RRGHYY-NH2
Ki (TEM-1): 136 µM
